{"source": "patent US20150296773A1", "about": "“COMPOSITIONS COMPRISING A […] MIXTURE AND AN INSECTICIDE” (Bayer CropScience AG, priority 2012, published 2015)", "format_in_all_cases": "in vivo", "key": {"[1]": {"test_system": "Phaedon cochleariae", "test": "Phaedon cochleariae spray test (Example D, Chinese cabbage leaf-disks)", "conditions": "mortality after 6 d", "protocol": "Phaedon cochleariae—Spray Test\nSolvent: 78.0 parts by weight of acetone • • 1.5 parts by weight of dimethylformamide Emulsifier: 0.5 parts by weight of alkylaryl polyglycolether\n(§1) To produce a suitable preparation of active compound, 1 part by weight of active compound is mixed with the stated amount of solvent and emulsifier, and the concentrate is diluted with emulsifier-containing water to the desired concentration. To produce a suitable preparation of a spore suspension the spores are diluted with emulsifier-containing water to the desired concentration.\nChinese cabbage (Brassica pekinensis) leaf-disks are sprayed with a preparation of the active ingredient of the desired concentration. Once dry, the leaf disks are infested with mustard beetle larvae (Phaedon cochleariae).\nAfter the specified period of time, mortality in % is determined 100% means all beetle larvae have been killed and 0% means none of the beetle larvae have been killed. The mortality values determined thus are recalculated using the Colby-formula (see above)."}, "[2]": {"test_system": "Myzus persicae", "test": "Myzus persicae spray test (Example A, pepper leaves)", "conditions": "for Efficacy in % after 5 d: mortality after 5 d; for Efficacy in % after 4 d: mortality after 4 d", "protocol": "(§2) Myzus persicae—Spray Test\n(§3) Solvent: 7 parts by weight of dimethylformamide Emulsifier: 2 parts by weight of alkylaryl polyglycolether\n(§4) To produce a suitable preparation of active compound, 1 part by weight of active compound is mixed with the stated amount of solvent and emulsifier, and the concentrate is diluted with emulsifier-containing water to the desired concentration. To produce a suitable preparation of a spore suspension the spores are diluted with emulsifier-containing water to the desired concentration Ammonium salt and/or penetration enhancer in a dosage of 1000 ppm are added to the desired concentration, if necessary.\nPepper leaves (Capsicum annuum) which are heavily infested by the green peach aphid (Myzus persicae) are treated by being sprayed with the preparation of the active compound of the desired concentration.\nAfter the specified period of time, mortality in % is determined 100% means all the aphids have been killed; 0% means none of the aphids have been killed. The mortality values determined thus are recalculated using the Colby-formula (see above)."}, "[3]": {"test_system": "Aphis gossypii", "test": "Aphis gossypii spray test (Example B, cotton leaves)", "conditions": "mortality after 1 d", "protocol": "Aphis gossypii—Spray Test\nas §3, §4\nCotton leaves (Gossypium hirsutum) which are heavily infested by the cotton aphid (Aphis gossypii) are treated by being sprayed with the preparation of the active compound of the desired concentration.\nAfter the specified period of time, the mortality in % is determined 100% means all the aphids have been killed; 0% means none of the aphids have been killed. The mortality values determined thus are recalculated using the Colby-formula (see above)."}, "[4]": {"test_system": "Myzus persicae", "test": "Myzus persicae spray test (Example G, Chinese cabbage leaf-disks)", "conditions": "for Efficacy in % after 6 d: mortality after 6 d; for Efficacy in % after 1 d: mortality after 1 d", "protocol": "as §2\n(§5) Solvent: 78.0 parts by weight acetone • 1.5 parts by weight dimethylformamide Emulsifier: 0.5 parts by weight alkylarylpolyglycolether\nas §1\nChinese cabbage (Brassica pekinensis) leaf—disks infected with all instars of the green peach aphid (Myzus persicae) are sprayed with a preparation of the active ingredient of the desired concentration.\nAfter the specified period of time, mortality in % is determined 100% means all aphids have been killed; 0% means none of the aphids have been killed. The mortality values determined thus are recalculated using the Colby-formula (see above)."}, "[5]": {"test_system": "Tetranychus urticae", "test": "Tetranychus urticae spray test, OP-resistant (Example H, French beans)", "conditions": "for Efficacy in % after 6 d: mortality after 6 d; for Efficacy in % after 2 d: mortality after 2 d", "protocol": "(§6) Tetranychus urticae—Spray Test, OP-Resistant\nas §5, §1\nFrench beans (Phaseolus vulgaris) which are heavily infested with all stages of the two spotted spidermite (Tetranychus urticae), are sprayed with a preparation of the active ingredient of the desired concentration.\nAfter the specified period of time, mortality in % is determined 100% means all spider mites have been killed and 0% means none of the spider mites have been killed. The mortality values determined thus are recalculated using the Colby-formula (see above)."}, "[6]": {"test_system": "Spodoptera frugiperda", "test": "Spodoptera frugiperda test (SPODFR) (Example F, maize leaves)", "conditions": "0.075 g ai/ha; mortality after 3 d", "protocol": "Spodoptera frugiperda—Test (SPODFR)\nSolvent: 7 parts by weight of dimethylformamide Emulsifier: 1 part by weight of alkylaryl polyglycolether\nas §4, with “concentration” for “concentration,”\nMaize leaves (Zea mais) are treated by being sprayed with the preparation of the active compound of the desired concentration and are infested with caterpillars of the fall army worm (Spodoptera frugiperda). The mortality values determined thus are recalculated using the Colby-formula (see above).\nAfter the specified period of time, mortality in % is determined 100% means all the caterpillars have been killed; 0% means none of the caterpillars have been killed."}, "[7]": {"test_system": "Tetranychus urticae", "test": "Tetranychus urticae spray test, OP-resistant (Example C, bean plants)", "conditions": "0.8 ppm; mortality after 6 d", "protocol": "as §6, §3\nas §4, with “concentration” for “concentration,”\nBean plants (Phaseolus vulgaris) which are heavily infested with all stages of the two-spotted spider mite (Tetranychus urticae) are treated by being sprayed with the preparation of the active compound of the desired concentration.\nAfter the specified period of time, mortality in % is determined 100% means all the spider mites have been killed; 0% means none of the spider mites have been killed. The mortality values determined thus are recalculated using the Colby-formula (see above)."}, "[8]": {"test_system": "Spodoptera frugiperda", "test": "Spodoptera frugiperda spray test (Example E, maize leaf sections)", "conditions": "0.032 g ai/ha; mortality after 6 d", "protocol": "Spodoptera frugiperda—Spray Test\nas §5\nas §1, with “preparation of the active compound,” for “preparation of active compound,”, “preparation of spore suspension” for “preparation of a spore suspension”\nMaize (Zea mais) leaf sections are sprayed with a preparation of the active ingredient of the desired concentration. Once dry, the leaf sections are infested with fall armyworm larvae (Spodoptera frugiperda).\nAfter the specified period of time, mortality in % is determined 100% means all caterpillars have been killed and 0% means none of the caterpillars have been killed. The mortality values determined thus are recalculated using the Colby-formula (see above)."}}, "data": [{"compound": "Cc1c(F)c(F)c(COC(=O)[C@@H]2[C@H](/C=C(\\Cl)C(F)(F)F)C2(C)C)c(F)c1F", "note": "(racemic) [Tefluthrin]", "values": [{"measurement": "Efficacy in % after 6 d", "setting": "[1]; 10 g ai/ha", "value": 0, "unit": "%"}]}, {"compound": "CNC(=O)c1cc(Cl)cc(C)c1NC(=O)c1cc(Br)nn1-c1ncccc1Cl", "note": "[Chlorantraniliprole]", "values": [{"measurement": "Efficacy in % after 5 d", "setting": "[2]; 8 ppm", "value": 60, "unit": "%"}, {"measurement": "Efficacy in % after 1 d", "setting": "[3]; 4 ppm", "value": 10, "unit": "%"}, {"measurement": "Efficacy in % after 1 d", "setting": "[3]; 8 ppm", "value": 50, "unit": "%"}]}, {"compound": "CN/C(=N\\[N+](=O)[O-])NCc1cnc(Cl)s1", "note": "[Clothianidin]", "values": [{"measurement": "Efficacy in % after 4 d", "setting": "[2]; 0.125 ppm", "value": 3, "unit": "%"}, {"measurement": "Efficacy in % after 4 d", "setting": "[2]; 0.25 ppm", "value": 10, "unit": "%"}, {"measurement": "Efficacy in % after 4 d", "setting": "[2]; 0.5 ppm", "value": 65, "unit": "%"}, {"measurement": "Efficacy in % after 1 d", "setting": "[3]; 0.25 ppm", "value": 3, "unit": "%"}, {"measurement": "Efficacy in % after 1 d", "setting": "[3]; 0.5 ppm", "value": 8, "unit": "%"}, {"measurement": "Efficacy in % after 6 d", "setting": "[1]; 20 g ai/ha", "value": 50, "unit": "%"}]}, {"compound": "CNC(=O)c1cc(C#N)cc(C)c1NC(=O)c1cc(Br)nn1-c1ncccc1Cl", "note": "[Cyantraniliprole]", "values": [{"measurement": "Efficacy in % after 6 d", "setting": "[1]; 0.8 g ai/ha", "value": 0, "unit": "%"}, {"measurement": "Efficacy in % after 6 d", "setting": "[4]; 0.8 g ai/ha", "value": 0, "unit": "%"}]}, {"compound": "CC1(C)[C@H](C(=O)O[C@H](C#N)c2cccc(Oc3ccccc3)c2)[C@@H]1C=C(Br)Br", "note": "[Deltamethrin]", "values": [{"measurement": "Efficacy in % after 6 d", "setting": "[5]; 4 g ai/ha", "value": 0, "unit": "%"}]}, {"compound": "N#Cc1nn(-c2c(Cl)cc(C(F)(F)F)cc2Cl)c(N)c1[S+]([O-])C(F)(F)F", "note": "(centres unmarked) [Fipronil]", "values": [{"measurement": "Efficacy in % after 6 d", "setting": "[4]; 100 g ai/ha", "value": 0, "unit": "%"}, {"measurement": "Efficacy in % after 6 d", "setting": "[5]; 100 g ai/ha", "value": 0, "unit": "%"}]}, {"compound": "Cc1cc(C(F)(C(F)(F)F)C(F)(F)F)ccc1NC(=O)c1cccc(I)c1C(=O)NC(C)(C)CS(C)(=O)=O", "note": "[Flubendiamide]", "values": [{"measurement": "Efficacy in % after 3 d", "setting": "[6]", "value": 18, "unit": "%"}]}, {"compound": "O=C1C=C(N(Cc2ccc(Cl)nc2)CC(F)F)CO1", "note": "[Flupyradifurone]", "values": [{"measurement": "Efficacy in % after 6 d", "setting": "[4]; 0.8 g ai/ha", "value": 0, "unit": "%"}]}, {"compound": "Cc1cc(F)c(-n2nc(C(F)(F)F)nc2N)cc1[S+]([O-])CC(F)(F)F", "note": "(centres unmarked) [I277, 1-{2-fluoro-4-methyl-5-[(2,2,2-trifluorethyl)sulfinyl]phenyl}-3-(trifluoromethyl)-1H-1,2,4-triazol-5-amine]", "values": [{"measurement": "Efficacy in % after 6 d", "setting": "[7]", "value": 25, "unit": "%"}, {"measurement": "Efficacy in % after 6 d", "setting": "[5]; 4 g ai/ha", "value": 70, "unit": "%"}]}, {"compound": "O=[N+]([O-])NC1=NCCN1Cc1ccc(Cl)nc1", "note": "[Imidacloprid]", "values": [{"measurement": "Efficacy in % after 1 d", "setting": "[4]; 0.16 g ai/ha", "value": 70, "unit": "%"}]}, {"compound": "CNC(=O)Oc1cc(C)c(SC)c(C)c1", "note": "[Methiocarb]", "values": [{"measurement": "Efficacy in % after 6 d", "setting": "[4]; 500 g ai/ha", "value": 0, "unit": "%"}, {"measurement": "Efficacy in % after 6 d", "setting": "[5]; 100 g ai/ha", "value": 20, "unit": "%"}]}, {"compound": "Cc1cc(C)c(C2=C(OC(=O)CC(C)(C)C)C3(CCCC3)OC2=O)c(C)c1", "note": "[Spiromesifen]", "values": [{"measurement": "Efficacy in % after 6 d", "setting": "[5]; 0.8 g ai/ha", "value": 30, "unit": "%"}]}, {"compound": "CCOC(=O)OC1=C(c2cc(C)ccc2C)C(=O)N[C@]12CC[C@@H](OC)CC2", "note": "[Spirotetramat]", "values": [{"measurement": "Efficacy in % after 6 d", "setting": "[4]; 0.8 g ai/ha", "value": 0, "unit": "%"}, {"measurement": "Efficacy in % after 6 d", "setting": "[5]; 0.8 g ai/ha", "value": 0, "unit": "%"}]}, {"compound": "CC(c1ccc(C(F)(F)F)nc1)S(C)(=O)=NC#N", "note": "(centres unmarked) [Sulfoxaflor]", "values": [{"measurement": "Efficacy in % after 6 d", "setting": "[4]; 0.16 g ai/ha", "value": 70, "unit": "%"}]}, {"compound": "N#C/N=C1\\SCCN1Cc1ccc(Cl)nc1", "note": "[Thiacloprid]", "values": [{"measurement": "Efficacy in % after 6 d", "setting": "[4]; 0.16 g ai/ha", "value": 0, "unit": "%"}]}, {"compound": "CN1COCN(Cc2cnc(Cl)s2)/C1=N\\[N+](=O)[O-]", "note": "[Thiamethoxam]", "values": [{"measurement": "Efficacy in % after 1 d", "setting": "[4]; 0.8 g ai/ha", "value": 70, "unit": "%"}]}, {"compound": "CS/C(C)=N\\OC(=O)N(C)SN(C)C(=O)O/N=C(\\C)SC", "note": "[Thiodicarb]", "values": [{"measurement": "Efficacy in % after 6 d", "setting": "[4]; 100 g ai/ha", "value": 0, "unit": "%"}]}, {"compound": "CC1(C)C(C=C(Cl)Cl)C1C(=O)OC(C#N)c1ccc(F)c(Oc2ccccc2)c1", "note": "(stereo not drawn) [β-Cyfluthrin, beta-Cyfluthrin]", "values": [{"measurement": "Efficacy in % after 6 d", "setting": "[4]; 0.16 g ai/ha", "value": 0, "unit": "%"}, {"measurement": "Efficacy in % after 6 d", "setting": "[5]; 4 g ai/ha", "value": 0, "unit": "%"}]}, {"compound": "Abamectin", "values": [{"measurement": "Efficacy in % after 5 d", "setting": "[2]; 2 ppm", "value": 30, "unit": "%"}]}, {"compound": "Spinetoram", "values": [{"measurement": "Efficacy in % after 6 d", "setting": "[8]", "value": 33, "unit": "%"}, {"measurement": "Efficacy in % after 2 d", "setting": "[5]; 4 g ai/ha", "value": 20, "unit": "%"}]}, {"compound": "Spinosad", "values": [{"measurement": "Efficacy in % after 2 d", "setting": "[5]; 4 g ai/ha", "value": 0, "unit": "%"}]}]}
